From EP0326640B1, “(1R,5S,6S)-2-substituted thio-6 (R)-1-hydroxyethyl -1-methyl-carbapenem - carboxylic acid derivatives” (LEDERLE (JAPAN) LTD., priority 1987, dated 1989)
≈ marks a conversion by molar mass, not a printed value. Each block holds one compound with its values, some of them ahead of it.

How the values were obtained:
[1] = target: T1, Swine Kidney Dehydropeptidase-I (DHP-I) (Sus scrofa, UniProt P22412); experiment: Hydrolysis activity against DHP-I enzyme substrate by late assay; type: in vitro ADME; conditions: substrate concentration 100 µM, 37°C, 10 minutes
T1 construct: made soluble by treatment with butanol and purified by the ammonium sulfate fraction method, thereby producing DHP-I enzyme from a 75% ammonium sulfate fraction; from tissue; host or cells: swine kidney
Procedure: The swine kidney (8 kg) was homogenized and the enzyme protein was allowed to precipitate. After a connective lipid was removed with acetone, the resultant material was made soluble by treatment with butanol and purified by the ammonium sulfate fraction method, thereby producing DHP-I enzyme from a 75% ammonium sulfate fraction. The DHP-I enzyme was then adjusted to give an enzyme concentration of 25 mg/10 ml (phosphate buffer, pH 7.1), and divided into 1 ml portions. The portions were frozen and stored at -40°C or less until use. Glycyl dehydrophenylalanine (Gl-dh-Ph) and imipenem were employed as control compounds, and they were adjusted in situ each to give a concentration of 117 µM with the same sodium phosphate buffer solution. […] The solution was then incubated at 37°C for 10 minutes. The initial velocity of hydrolysis of the substrate was measured from a decrease in absorbency at a particular λmax of each of the substrates. A blank test was conducted in substantially the same manner as above by adding 0.2 ml of the sodium phosphate buffer solution (pH 7.1) to 1.2 ml of the above substrate.

[2] = tested on: Citrobactor freundii GN 346; experiment: Antibacterial activity against clinically isolated β-lactamase (cephalosporinase) producing strains (MIC); type: cell-based; conditions: cephalosporinase producing strain, SDA, 18 to 20 hours
Procedure: (§1) The antibacterial activities against clinically isolated β-lactamase producing strains were tested by the agar plate dilution method in accordance with the standard method of The Japanese Chemotherapy Society [Chemotherapy, Vol. 29, 76-79 (1981)]. A solution of a cephalosporinase producing strain stored by Episome Research Institute, prepared by incubating the strain in a sensitivity test broth (STB; product of Nissui K. K.) for 18 hours, was diluted with a fresh STB solution so that the solution contained 10⁶ cells per milliliter. The diluted solution was then inoculated as spots in a microplanter on a sensitivity disk agar-N (SDA; product of Nissui K. K.) containing a test compound. The disk agar was then incubated for 18 to 20 hours. The minimum inhibitory concentration was determined as a minimum concentration in which the test microorganism no longer grew after a 18 to 20-hour incubation.

[3] = tested on: Klebsiella oxytoca GN 10650; experiment: as above; type: cell-based; conditions: Klebsiella oxytoca, GN10650, Klebsiella oxytoca GN 10650; cephalosporinase producing strain, SDA, 18 to 20 hours; read-out: MIC
Procedure: as §1

Serratia marcescens L-65 = experiment: as above; type: cell-based; conditions: Serratia marcescens, L65, Serratia marcescens L-65; cephalosporinase producing strain, SDA, 18 to 20 hours; read-out: MIC
Procedure: as §1

[4] = tested on: Pseudomonas cepacia GN 11164; experiment: as above; type: cell-based; conditions: Burkholderia cepacia, GN11164, cephalosporinase producing strain, SDA, 18 to 20 hours, read-out: MIC
Procedure: as §1

Serratia marcescens L-82 = experiment: as above; type: cell-based; conditions: L82, cephalosporinase producing strain, SDA, 18 to 20 hours, read-out: MIC
Procedure: as §1

[5] = tested on: Pseudomonas aeruginosa GN 10367; experiment: as above; type: cell-based; conditions: GN10367; Pseudomonas aeruginosa GN 10367; cephalosporinase producing strain, SDA, 18 to 20 hours; read-out: MIC
Procedure: as §1

[6] = tested on: Pseudomonas aeruginosa GN 10362; experiment: as above; type: cell-based; conditions: GN10362, cephalosporinase producing strain, SDA, 18 to 20 hours, read-out: MIC
Procedure: as §1

[7] = tested on: Serratia marcescens GN 10857; experiment: as above; type: cell-based; conditions: Serratia marcescens, GN10857, Serratia marcescens GN 10857; cephalosporinase producing strain, SDA, 18 to 20 hours; read-out: MIC
Procedure: as §1

[8] = tested on: Citrobactor freundii GN 7391; experiment: as above; type: cell-based; conditions: cephalosporinase producing strain, SDA, 18 to 20 hours
Procedure: as §1

[9] = tested on: Pseudomonas aeruginosa GN 918; experiment: as above; type: cell-based; conditions: GN918; Pseudomonas aeruginosa GN 918; cephalosporinase producing strain, SDA, 18 to 20 hours; read-out: MIC
Procedure: as §1

Proteus vulgaris GN 4413 = experiment: as above; type: cell-based; conditions: Proteus vulgaris, GN4413, Proteus vulgaris GN 4413; cephalosporinase producing strain, SDA, 18 to 20 hours; read-out: MIC
Procedure: as §1

Proteus vulgaris GN 7919 = experiment: as above; type: cell-based; conditions: Proteus vulgaris, GN7919, Proteus vulgaris GN 7919; cephalosporinase producing strain, SDA, 18 to 20 hours; read-out: MIC
Procedure: as §1

[10] = tested on: Salmonella enteritidis G14; experiment: Antibacterial test, agar plate dilution method (MIC), standard strains; type: cell-based; conditions: Salmonella enterica, MH agar, 37°C, 18 hours, read-out: MIC
Procedure: (§2) The antibacterial activities were tested by an agar plate dilution method in accordance with the standard method of The Japanese Chemotherapy Society [Chemotherapy, Vol. 29, 76-79 (1981)].
(§3) A Mueller-Hinton (MH) agar liquid medium of a test microorganism was cultured overnight at 37°C and the resultant culture medium was diluted with a buffered saline gelatin (BSG) solution to contain approximately 10⁶ cells of the test microorganisms per milliliter, and then the diluted solution was inoculated with a microplanter at the rate of approximately 5 microliters on a MH agar medium containing a test compound. This medium was then incubated at 37°C for 18 hours. The minimum inhibitory concentration (MIC) is determined as a minimum concentration in which no test microorganism could grow. It is noted here that the test organisms used were all standard strains.

[11] = tested on: Morganella morganii IFO3848; experiment: as above; type: cell-based; conditions: Morganella morganii, IFO3848, 18 h, MH agar, 37°C, read-out: MIC
Procedure: as §2, §3

[12] = tested on: Providencia rettgeri IFO 3850; experiment: as above; type: cell-based; conditions: Providencia rettgeri, IFO3850, 18 h, MH agar, 37°C, read-out: MIC
Procedure: as §2, §3

[13] = tested on: Salmonella schottmuelleri 8006; experiment: as above; type: cell-based; conditions: MH agar, 37°C, 18 hours, read-out: MIC
Procedure: as §2, §3

[14] = tested on: Pseudomanas aeruginosa NCTC 10940; experiment: as above; type: cell-based; conditions: 18 h, MH agar, 37°C, read-out: MIC
Procedure: as §2, §3

[15] = tested on: Serratia marcescens IAM1184; experiment: as above; type: cell-based; conditions: Serratia marcescens, IAM1184, 18 h, MH agar, 37°C, read-out: MIC
Procedure: as §2, §3

Proteus vulgaris HX-19 = experiment: as above; type: cell-based; conditions: HX19; Proteus vulgaris HX-19; MH agar, 37°C, 18 hours; read-out: MIC
Procedure: as §2, §3

[16] = tested on: Pseudomonas aeruginosa IFO 3445; experiment: as above; type: cell-based; conditions: IFO3445, MH agar, 37°C, 18 hours, read-out: MIC
Procedure: as §2, §3

Salmonella typhi 901 = experiment: as above; type: cell-based; conditions: Salmonella enterica, TYPHI, 18 h, MH agar, 37°C
Procedure: as §2, §3

Proteus vulgaris OX-19 = experiment: as above; type: cell-based; conditions: OX19; Proteus vulgaris OX-19; MH agar, 37°C, 18 hours; read-out: MIC
Procedure: as §2, §3

[17] = tested on: Proteus mirabilis IFO3849; experiment: as above; type: cell-based; conditions: Proteus mirabilis, IFO3849, 18 h, Proteus mirabilis IFO3849; MH agar, 37°C, 18 hours; read-out: MIC
Procedure: as §2, §3

[18] = tested on: Salmonella paratyphi 1015; experiment: as above; type: cell-based; conditions: Salmonella enterica, MH agar, 37°C, 18 hours, read-out: MIC
Procedure: as §2, §3

T1 sequence (P22412 17-384): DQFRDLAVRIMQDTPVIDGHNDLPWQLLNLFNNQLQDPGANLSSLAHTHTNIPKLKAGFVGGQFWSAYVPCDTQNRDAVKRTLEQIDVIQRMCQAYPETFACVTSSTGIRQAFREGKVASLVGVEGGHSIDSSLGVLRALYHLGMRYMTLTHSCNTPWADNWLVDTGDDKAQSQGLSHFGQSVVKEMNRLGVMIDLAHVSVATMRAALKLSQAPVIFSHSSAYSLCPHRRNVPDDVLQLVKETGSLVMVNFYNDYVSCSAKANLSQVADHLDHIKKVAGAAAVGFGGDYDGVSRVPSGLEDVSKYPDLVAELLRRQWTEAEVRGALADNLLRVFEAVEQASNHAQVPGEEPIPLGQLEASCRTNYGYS

initial velocity of hydrolysis [1]: 17.4 µM/min
SMILES: NCC(=O)NC(=Cc1ccccc1)C(=O)O [Gl-dh-Ph, Glycyl dehydrophenylalanine]

SMILES: Cc1nnc(SCC2=C(C(=O)O)N3C(=O)[C@@H](NC(=O)Cn4cnnn4)[C@H]3SC2)s1 [CEZ, cefazolin]
MIC [2]: 25 µg/mL (≈ 55 µM) | MIC [3]: 0.2 µg/mL (≈ 0.44 µM) | MIC (Serratia marcescens L-65): 0.2 µg/mL (≈ 0.44 µM) | MIC [4]: 0.78 µg/mL (≈ 1.72 µM) | MIC (Serratia marcescens L-82): 0.39 µg/mL (≈ 0.858 µM) | MIC [5]: 3.13 µg/mL (≈ 6.89 µM) | MIC [6]: 3.13 µg/mL (≈ 6.89 µM) | MIC [7]: 0.78 µg/mL (≈ 1.72 µM) | MIC [8]: >100 µg/mL | MIC [9]: 6.25 µg/mL (≈ 13.8 µM) | MIC (Proteus vulgaris GN 4413): 0.2 µg/mL (≈ 0.44 µM) | MIC (Proteus vulgaris GN 7919): 3.13 µg/mL (≈ 6.89 µM) | MIC [10]: 0.78 µg/mL (≈ 1.72 µM) | MIC [11]: 25 µg/mL (≈ 55 µM) | MIC [12]: 12.5 µg/mL (≈ 27.5 µM) | MIC [13]: 0.78 µg/mL (≈ 1.72 µM) | MIC [14]: > 100 µg/mL | MIC [15]: > 100 µg/mL | MIC (Proteus vulgaris HX-19): 6.25 µg/mL (≈ 13.8 µM) | MIC [16]: > 100 µg/mL | MIC (Salmonella typhi 901): 0.78 µg/mL (≈ 1.72 µM) | MIC (Proteus vulgaris OX-19): 6.25 µg/mL (≈ 13.8 µM) | MIC [17]: 6.25 µg/mL (≈ 13.8 µM) | MIC [18]: 1.56 µg/mL (≈ 3.43 µM)
